The term IC50 denotes the concentration needed to halve the response being measured.

This is an account of results in US9517244B2, “Therapeutic combinations for use in neoplasia” (University of Florida Research Foundation, Inc., priority 2011, dated 2016).

Like-named read-outs stand apart in the source and are kept apart here.

Among the test systems are Mia-PaCa2; BxPC3; HPAC; PANC1; AsPC1.
What all share (assay): MTT assay, pancreatic cancer cell line
Common to all, as to format: cell-based, human
Conditions in all cases: 72 h

With `[NH2][Pt]([NH2])([Cl])[Cl]` [CDDP, cisplatin], the IC50 came to 22.2 ± 1.15 µM with Mia-PaCa2 (Mia-PaCa2, NSC-30049 0 μM, 1 μM dFdC, read-out: IC50 of CDDP); 22.3 ± 1.1 µM in the test with Mia-PaCa2 (Mia-PaCa2, NSC-30049 0 μM, no dFdC, read-out: IC50 of CDDP); 0.09 µM in the test on Mia-PaCa2 (Mia-PaCa2, NSC-30049 0.5 μM, 1 μM dFdC, read-out: IC50 of CDDP); 14.3 ± 0.49 µM in the test with Mia-PaCa2 (Mia-PaCa2, NSC-30049 0.5 μM, no dFdC, read-out: IC50 of CDDP); 0.07 µM in the test with Mia-PaCa2 (Mia-PaCa2, NSC-30049 1.0 μM, 1 μM dFdC, read-out: IC50 of CDDP); 13.4 ± 1.33 µM with Mia-PaCa2 (Mia-PaCa2, NSC-30049 1.0 μM, no dFdC, read-out: IC50 of CDDP). In addition, the IC50 with Mia-PaCa2 (Mia-PaCa2, NSC-30049 2.5 μM, 1 μM dFdC, read-out: IC50 of CDDP) was 0.07 µM; with Mia-PaCa2 (Mia-PaCa2, NSC-30049 2.5 μM, no dFdC, read-out: IC50 of CDDP), 12.2 ± 1.12 µM; with BxPC3 (BxPC3, NSC-30049 0 μM, 0.025 μM dFdC, read-out: IC50 of CDDP) it was 2.02 ± 0.35 µM; in the test on BxPC3 (BxPC3, NSC-30049 0 μM, no dFdC, read-out: IC50 of CDDP) it was 1.96 ± 0.08 µM; in the test with BxPC3 (BxPC3, NSC-30049 0.5 μM, 0.025 μM dFdC, read-out: IC50 of CDDP), 0.94 ± 0.06 µM; with BxPC3 (BxPC3, NSC-30049 0.5 μM, no dFdC, read-out: IC50 of CDDP), 1.53 ± 0.09 µM. In addition, the 50% inhibitory concentration (IC50) amounted to 0.54 ± 0.06 µM with BxPC3 (BxPC3, NSC-30049 1.0 μM, 0.025 μM dFdC, read-out: IC50 of CDDP); 1.38 ± 0.04 µM with BxPC3 (BxPC3, NSC-30049 1.0 μM, no dFdC, read-out: IC50 of CDDP); 0.04 ± 0.001 µM in the test with BxPC3 (BxPC3, NSC-30049 2.5 μM, 0.025 μM dFdC, read-out: IC50 of CDDP); 0.26 ± 0.07 µM in the test on BxPC3 (BxPC3, NSC-30049 2.5 μM, no dFdC, read-out: IC50 of CDDP); 13.8 ± 5.51 µM in the test with HPAC (HPAC, NSC-30049 0 μM, 0.025 μM dFdC, read-out: IC50 of CDDP); 14.1 ± 4.34 µM in the test on HPAC (HPAC, NSC-30049 0 μM, no dFdC, read-out: IC50 of CDDP). For the same molecule, the IC50 amounted to 0.02 ± 0.01 µM in the test on HPAC (HPAC, NSC-30049 0.5 μM, 0.025 μM dFdC, read-out: IC50 of CDDP); 14.5 ± 2.47 µM with HPAC (HPAC, NSC-30049 0.5 μM, no dFdC, read-out: IC50 of CDDP); 0.01 ± 0.001 µM in the test with HPAC (HPAC, NSC-30049 1.0 μM, 0.025 μM dFdC, read-out: IC50 of CDDP); 11.6 ± 1.82 µM with HPAC (HPAC, NSC-30049 1.0 μM, no dFdC, read-out: IC50 of CDDP); 0.01 ± 0.001 µM in the test on HPAC (HPAC, NSC-30049 2.5 μM, 0.025 μM dFdC, read-out: IC50 of CDDP); 4.71 ± 1.24 µM with HPAC (HPAC, NSC-30049 2.5 μM, no dFdC, read-out: IC50 of CDDP). Moreover, the 50% inhibitory concentration (IC50) in the test with PANC1 (PANC1, NSC-30049 0 μM, 1 μM dFdC, read-out: IC50 of CDDP) was 9.87 ± 0.8 µM; with PANC1 (PANC1, NSC-30049 0 μM, no dFdC, read-out: IC50 of CDDP) it was 9.55 ± 0.94 µM; with PANC1 (PANC1, NSC-30049 0.5 μM, 1 μM dFdC, read-out: IC50 of CDDP), 1.06 ± 0.39 µM; with PANC1 (PANC1, NSC-30049 0.5 μM, no dFdC, read-out: IC50 of CDDP) it was 9 ± 0.03 µM; in the test with PANC1 (PANC1, NSC-30049 1.0 μM, 1 μM dFdC, read-out: IC50 of CDDP), 1.03 ± 0.36 µM; in the test with PANC1 (PANC1, NSC-30049 1.0 μM, no dFdC, read-out: IC50 of CDDP) it was 7.8 ± 0.5 µM. The half-maximal inhibitory concentration (IC50) was determined as 0.12 ± 0.09 µM in the test with PANC1 (PANC1, NSC-30049 2.5 μM, 1 μM dFdC, read-out: IC50 of CDDP); 2.04 ± 0.41 µM with PANC1 (PANC1, NSC-30049 2.5 μM, no dFdC, read-out: IC50 of CDDP); 3.19 ± 0.28 µM in the test on AsPC1 (AsPC1, NSC-30049 0 μM, 1 μM dFdC, read-out: IC50 of CDDP); 3.49 ± 0.13 µM with AsPC1 (AsPC1, NSC-30049 0 μM, no dFdC, read-out: IC50 of CDDP); 0.64 ± 0.08 µM with AsPC1 (AsPC1, NSC-30049 0.5 μM, 1 μM dFdC, read-out: IC50 of CDDP); 2.2 ± 0.22 µM in the test on AsPC1 (AsPC1, NSC-30049 0.5 μM, no dFdC, read-out: IC50 of CDDP). Besides, the IC50 is 0.11 ± 0.09 µM in the test on AsPC1 (AsPC1, NSC-30049 1.0 μM, 1 μM dFdC, read-out: IC50 of CDDP); 2.09 ± 0.19 µM in the test on AsPC1 (AsPC1, NSC-30049 1.0 μM, no dFdC, read-out: IC50 of CDDP); 0.004 ± 0.0001 µM in the test on AsPC1 (AsPC1, NSC-30049 2.5 μM, 1 μM dFdC, read-out: IC50 of CDDP); 0.2 ± 0.01 µM in the test with AsPC1 (AsPC1, NSC-30049 2.5 μM, no dFdC, read-out: IC50 of CDDP).
Regarding `Nc1ccn([C@@H]2O[C@H](CO)[C@@H](O)C2(F)F)c(=O)n1` [dFdC, gemcitabine], the IC50 amounted to 11.5 ± 2.9 µM in the test with Mia-PaCa2 (Homo sapiens, MIA PaCa-2, Mia-PaCa2 (dFdC-resistant), single agent, read-out: IC50); 0.07 ± 0.005 µM in the test with BxPC3 (Homo sapiens, BXPC-3, BxPC3 (dFdC-sensitive), single agent, read-out: IC50); 0.07 ± 0.007 µM in the test on HPAC (Homo sapiens, HPAC (dFdC-sensitive), single agent, read-out: IC50); 11.6 ± 2.93 µM in the test with PANC1 (Homo sapiens, PANC-1, PANC1 (dFdC-resistant), single agent, read-out: IC50); 1.83 ± 0.47 µM in the test with AsPC1 (Homo sapiens, AsPC1 (dFdC-resistant), single agent, read-out: IC50).
